Values quoted from earlier work in patent US20240374543A1, “PHARMACEUTICAL COMPOSITIONS” (priority 2021, published 2024).

Details: determined by the FDA

Substance: N-Nitrosodimethylamine [NDMA]
- acceptable daily intake limit of NDMA: 96 nanogram per day
